These are literature values, as cited in US10112962B2, “Boron-based prodrug strategy for increased bioavailability and lower-dosage requirements for drug molecules containing at least one phenol (or aromatic hydroxyl) group” (XAVIER UNIVERSITY OF LOUISIANA, priority 2014, dated 2018).

For data set [1] the following is noted: literature statement.
The conditions of data set [2]: literature statement. The source holds these as a separate data set.

On to `O=C(Nc1ccc([N+](=O)[O-])cc1Cl)c1cc(Cl)ccc1O` [niclosamide, Niclosamide], for which, in data set [1], the oral bioavailability result is “low oral bioavailability”. Also, the water solubility entry in data set [2] is given as “poor water solubility”.

As to `O=C(c1ccc(OCCN2CCCCC2)cc1)c1c(-c2ccc(O)cc2)sc2cc(O)ccc12` [raloxifen, Raloxifene], the oral bioavailability entry in data set [1] is listed as “poor bioavailability”.

Take `C[C@]12CC[C@@H]3c4ccc(O)cc4C[C@@H](CCCCCCCCC[S+]([O-])CCCC(F)(F)C(F)(F)F)[C@H]3[C@@H]1CC[C@@H]2O` (stereo partly shown) [Fulvestrant]: the oral bioavailability entry in data set [1] was “poor oral bioavailability”.
